Patent publication US3994981A, “Derivatives of certain geranyl phenyl ethers” (Stauffer Chemical Company, priority 1973, dated 1976)

test system: yellow mealworm, Tenebrio molitor, L.; experiment: Insecticidal evaluation test: hindering metamorphosis of insects (Tenebrio molitor pupae, topical application); assay type: in vivo; details: applied in acetone to the venter of pupae 1-25 hours old; 28° C., 40% humidity; graded at adult emergence (6-8 days); average of 2 groups of 20 pupae
Protocol: The degree of activity of a candidate compound to hinder or impede the metamorphosis of insects is measured by treating the penultimate larval stage of a representative insect with the compound and examining it after its last molt toward the adult form for retention of immature features.
Specifically, yellow mealworm, Tenebrio molitor, L., larvae are maintained at 28° C. and 40% humidity on a diet of bran flakes. Prepupae care collected from the culture and kept in separate containers. The pupae collected once daily, are 1-25 hours old at the time of treatment. By means of a syringe, suitable amounts of candidate compounds in […] of acetone are applied to the ventor of Tenebrio molitor, L. pupae. Treated pupae are maintained at 28° C. and 40% humidity until the adults emerged (usually within 6-8 days). Emerged adults are graded as positive, negative, or dead. To be considered a positive response, the presence of typical pupal cuticle, urogomphi, gin trap, and abnormal wings, etc., are required. For each test, 2 groups of 20 pupae were used and the averaged results were reported.
The dose of a candidate compound per pupa that is needed to kill or give a positive response in the above insecticidal evaluation test for 10 of the 20 pupae is determined.

| Compound | ED50: dose per pupa needed to kill or give a positive response for 10 of the 20 pupae [μg/pupa] |
| --- | --- |
| C=C(C)C(Cl)CCC(C)=CCOc1ccc(SC)cc1 (stereo not shown) [Compound 1] | 0.3 |
| C=C(C)C(Cl)CCC(C)=CCOc1ccc(CC)cc1 (stereo not shown) [Compound 2, 1-(4'-ethyl) phenoxy-3,7-dimethyl-6-chloro-2,7-octadiene] | 0.1 |
| C=C(C)C(Br)CCC(C)=CCOc1ccc(CC)cc1 (stereo not shown) [Compound 3, 1-(4'-ethyl) phenoxy-3,7-dimethyl-6-bromo-2,7-octadiene] | 0.5 |
| C=C(C)C(Cl)CCC1(C)OC1COc1ccc(CC)cc1 (stereo not shown) [Compound 24, 3,7-dimethyl-6-chloro-1-p-ethylphenoxy-2,3-epoxy-7-octene] | 0.03 |
